In data set [1] the test system is resting responder T cells. Kind of data set: Third party MLR of resting responder T cells sorted after PXD exposure. Format: cell-based, human. The following applies: 10 μM PXD added day 5 of first MLR; sorted day 8, restimulated without PXD. As for the experimental part:
Mixed lymphocyte reactions were established using unrelated, HLA-mismatched healthy donor blood samples as donor/recipient pairs. Stimulator PBMC were γ-irradiated with 30 Gy as described previously (Zenhausen et al., 2007). Responder PBMC were washed twice in PBS, 5,6-carboxy-succinimidyl-fluorescein-ester (CSFE)-labelled (1.25 μM, Sigma) at room temperature for 5 minutes, and washed twice in PBS/10% FCS. Two hundred thousand stimulator and responder cells were added per well at a 1:1 ratio in a 96 U-well plate in T cell medium. Stimulator and responder cells were also plated alone, and all cells were cultured in a 5% CO2, 37° C. humidified incubator. Viability, CFSE fluorescence and cell surface antigen expression were determined by flow cytometry. Cells were washed twice in FACS buffer (PBS, 2% FCS), and resuspended in 50 μL/5×10^5 cells and analysed on a Becton Dickinson LSRII FACS analyser using FlowJo (TreeStar) software.
The experiment described above was expanded by determining the effect of PXD exposure on responder T cells that had previously been exposed to, but not activated in a MLR. Two consecutive sets of MLRs were set up, mixing responder T cells and γ-irradiated stimulator cells on day 0, adding 10 μM PXD or 0.1% DMSO on day 5, and analysing proliferation and viability of responder T cells on day 8. […]

Data set [2] deals with ALL-derived MOLT-4. The data set is described as follows: Sensitivity of cell types to PXD, viability by AV/PI staining. Format: cell-based. The following applies: Homo sapiens; MOLT-4, 10 μM PXD for 24 h; read-out: [% viable blasts after PXD exposure]/[% viable blasts after 0.1% DMSO exposure]. As for the experimental part:
(§1) FIG. 6. Sensitivity of different cell types to PXD. Different cell types were incubated with 10 μM PXD for 24 h and viability was determined by AV/PI staining and reported as [% viable blasts after PXD exposure]/[% viable blasts after 0.1% DMSO exposure]. Percentage values are as follows: AML-derived HL60: 16±5 and HL60p°: 54±6, ALL-derived MOLT-4: 44±4, MM-derived U226: 59±6 and RPMI 8226: 12±4, primary AML blasts: 64±5, primary ALL blasts: 23±4, normal BM: 89±5, proliferating T cells: 69±4, resting T cells: 98±6. Results from cell lines are presented as the average±SEM of at least 3 separate experiments, results from bone marrow samples are presented as the average±SD of single experiments performed in duplicate.
(§2) Cell lines were grown in RPMI-1640 medium (GIBCO-BRL, Grand Island, N.Y.) supplemented with 5% (v/v) fetal calf serum, 2 mM […], 25 μg/mL penicillin, 25 μg/mL streptomycin, 50 μg/mL uridine and 1 mM pyruvate to densities of 1-2×10^6 cells/mL (exponential stage), at 37° C. in a humidified incubator maintained at 5% CO2.
(§3) Cells were centrifuged at 1400 rpm in a Multifuge 3 s (Heraeus) for 4 min at room temperature, washed in phosphate buffered saline solution, pH 7.3 (PBS) and resuspended in Annexin V binding buffer. Small aliquots (0.5-1×10^6 cells) were transferred to 1.5 mL tubes and spun at 1400 rpm in a Multifuge 3 s (Heraeus) for 4 min. Most supernatant was removed and 5 μL PI and 5 μL FITC-labelled AV was added to the wet pellets which were vortexed. After 30 min in the dark on ice, 500 μl of AV binding buffer was added, the cells were centrifuged for 2 min at 1400 rpm, washed once with AV binding buffer and resuspended in 300 μL of AV binding buffer in FACS tubes. Staining was analyzed by flow cytometry using a Becton Dickinson Canto II FACS analyser using FlowJo (TreeStar) software.

The test system of data set [3] is HL60p°. Described as above. Format: cell-based. The settings on record: Homo sapiens, 10 μM PXD for 24 h, read-out: [% viable blasts after PXD exposure]/[% viable blasts after 0.1% DMSO exposure]. As for the experimental part: as §1, §2, §3
The test system of data set [4] is MM-derived U226. Described as above. Type of data set: cell-based. The settings on record: Homo sapiens; U226, 10 μM PXD for 24 h; read-out: [% viable blasts after PXD exposure]/[% viable blasts after 0.1% DMSO exposure]. The method, then:
as §1, §2, §3

The subject of data set [5] is AML-derived HL60. The description is as above. Format: cell-based. The following applies: Homo sapiens, HL-60; HL60, 10 μM PXD for 24 h; read-out: [% viable blasts after PXD exposure]/[% viable blasts after 0.1% DMSO exposure]. The method, then:
as §1, §2, §3

Data set [6] concerns resting T cells. The data set is described as follows: Cell proliferation measured by MTT reduction. Format: cell-based. The following applies: Homo sapiens, 48 h incubation, read-out: IC50 inhibition of MTT reduction (proliferation). As for the experimental part:
(§4) Immediately prior to experiments, frozen PBMC were thawed, centrifuged at 1400 rpm in a Multifuge 3 s (Heraeus) for 4 min, washed in RPMI+10% FCS and resuspended in T cell medium (RPMI+10% FCS+10 μM 2-mercaptoethanol (Sigma), 1×glutamine, 1×non-essential amino acids (Gibco)) at 2×10^6 cells/mL. Cells (2×10^5) were activated by adding 10 μg/mL anti-CD3 and 5 μg/mL anti-CD28 and 20 U/mL IL-2 per well. Cells were incubated at 37° C. in a humidified incubator maintained at 5% CO2 for 4 to 5 days until large numbers of large spherical aggregates or “bursts” of lymphocytes were observed. Activated proliferating T cells were pooled from the wells for further experiments. Resting T cells were incubated for the same length of time but in the presence of 20 U/mL IL-2 only.
(§5) MTT reduction was measured as previously described (Berridge et al., 1996) in a microplate format as follows: exponentially growing cells were centrifuged at 1400 rpm in a Multifuge 3 s (Heraeus) for 4 min, washed and resuspended in HBSS buffer. […] After 2 h, 100 μL of lysing buffer was added and formazan crystals dissolved by manual pipetting using a multichannel pipette before measuring A570 in a BMG FLUOstar OPTIMA plate reader. […]

For data set [7], the system named is proliferating T cells. The data set is described as follows: Cell proliferation measured by MTT reduction. Type of data set: cell-based. The settings on record: Homo sapiens, 48 h incubation, read-out: IC50 inhibition of MTT reduction (proliferation). The method, then: as §4, §5
Data set [8] concerns MM-derived RPMI 8226. The data set is described as follows: Sensitivity of cell types to PXD, viability by AV/PI staining. Format: cell-based, human. The following applies: RPMI 8226, 10 μM PXD for 24 h. The method, then:
as §1, §2
Cells were centrifuged at 1400 rpm in a Multifuge 3 s (Heraeus) for 4 min at room temperature, washed in phosphate buffered saline solution, pH 7.3 (PBS) and resuspended in Annexin V binding buffer. […] Staining was analyzed by flow cytometry using a Becton Dickinson Canto II FACS analyser using FlowJo (TreeStar) software.

With `Oc1ccc(C2=Cc3ccc(O)cc3OC2)cc1` [PXD, Isoflav-3-en-4′,7-diol], the “viability and functionality of non-proliferating T cells” value in data set [1] is “affects neither the viability nor the functionality”. Moreover, the viability at 10 µM in data set [2] is 44 ± 4%; in data set [3], 54 ± 6%; in data set [4], 59 ± 6%; in data set [5], 16 ± 5%. Also, the IC50 was over 200 µM in data set [6] and 5.4 µM in data set [7]. Also, in data set [8], the “[% viable blasts after PXD exposure]/[% viable blasts after 0.1% DMSO exposure]” value is on record as 12±4%.

The record behind these values is patent US20120039917A1, “IMMUNO[…]” (priority 2008, published 2012).
